Data as given in ChEMBL document CHEMBL1201862, “PubChem BioAssay data set” (2004).
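Exposure lasted 48 hours, with cells grown in 96-well plates and compounds tested at five concentrations. GI50: concentration for 50% inhibition of growth.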 Active and inactive are the calls of the source. Rule as the data show it: active = GI50 up to about 1.1 µM and inactive = higher.

Assays:
Test in all cases: NCI tumour cell line growth inhibition, 48 h
[1] = system: NCI-H226
[2] = system: HT-29
[3] = system: SNB-19
[4] = system: SF-268
[5] = system: ACHN
[6] = system: HCT-116
[7] = system: K562
[8] = system: MOLT-4
[9] = system: 786-0
[10] = system: HCT-15
[11] = system: OVCAR-8
[12] = system: HOP-62
[13] = system: NCI-H23
[14] = system: MDA-N
[15] = system: MDA-MB-231
[16] = system: NCI/ADR-RES
[17] = system: BT-549
[18] = system: PC-3
[19] = system: Hs-578T

Structure (SMILES)	GI50 [1]	GI50 [2]	GI50 [3]	GI50 [4]	GI50 [5]	GI50 [6]	GI50 [7]	GI50 [8]	GI50 [9]	GI50 [10]	GI50 [11]	GI50 [12]	GI50 [13]	GI50 [14]	GI50 [15]	GI50 [16]	GI50 [17]	GI50 [18]	GI50 [19]
CCC(CC)NC1=C(NC(C)=O)C(=O)c2ccccc2C1=O	> 50 µM (inactive)	> 50 µM (inactive)	> 50 µM (inactive)	> 50 µM (inactive)	> 50 µM (inactive)	> 50 µM (inactive)	> 50 µM (inactive)	> 50 µM (inactive)	> 50 µM (inactive)	> 50 µM	> 50 µM (inactive)	> 50 µM (inactive)	> 50 µM (inactive)						
C=CCCC(C)N(C(=O)OC(C)(C)C)S(=O)(=O)c1ccc(C)cc1 (centres undefined)	> 100 µM (inactive)	> 100 µM (inactive)	> 100 µM (inactive)	> 100 µM (inactive)	> 100 µM (inactive)	> 100 µM (inactive)	> 100 µM (inactive)	97.1 µM (inactive)	> 100 µM (inactive)	> 100 µM	> 100 µM (inactive)	> 100 µM (inactive)	> 100 µM (inactive)						
COc1ccc(CNc2nc3cc(C(F)(F)F)ccc3nc2C(=O)O)cc1	40 µM (inactive)	24 µM (inactive)	31.2 µM (inactive)		29.4 µM (inactive)	19.2 µM (inactive)	24.7 µM (inactive)	21.8 µM (inactive)	23.1 µM (inactive)	22.6 µM	32.3 µM (inactive)	21.4 µM (inactive)	24.5 µM (inactive)	27.7 µM (inactive)	26.9 µM (inactive)	24.3 µM (inactive)	23.3 µM (inactive)	31.2 µM (inactive)	
CC1CC/C(=C\c2ccc(F)cc2)C2=C1C(c1ccc(F)cc1)n1c(s/c(=C\c3ccc(Cl)cc3)c1=O)=N2 (centres undefined)		> 100 µM (inactive)	> 100 µM (inactive)	> 100 µM (inactive)	> 100 µM (inactive)	> 100 µM (inactive)	> 100 µM (inactive)	> 100 µM (inactive)	> 100 µM (inactive)	> 100 µM	> 100 µM (inactive)	> 100 µM (inactive)		> 100 µM (inactive)	> 100 µM (inactive)			> 100 µM (inactive)	> 100 µM (inactive)
COC1/C=C(C)/C=C/C(C)/C=C/C(=O)OC(/C(C)=C/C=C(\C)CNC(=O)[C@H](CO)NC=O)C(C)/C=C/C=C/C(OC)CC/C=C(C)/C=C/C1 (some centres undefined)		0.0125 µM (active)	> 1 µM (active)	0.113 µM (active)	0.0474 µM (active)	0.0318 µM (active)	0.0192 µM (active)	0.0206 µM (active)	0.0288 µM (active)	0.111 µM	0.0399 µM (active)	0.0224 µM (active)	0.0497 µM (active)		0.012 µM (active)	0.407 µM (active)	0.0581 µM (active)	0.0264 µM (active)	> 0.214 µM (active)
Oc1ccc2ccccc2c1OCc1nnc(CCCCCCCCc2nnc(COc3c(O)ccc4ccccc34)o2)o1	> 100 µM (inactive)	> 100 µM (inactive)	> 100 µM (inactive)	99.3 µM (inactive)	> 100 µM (inactive)	20.7 µM (inactive)	> 100 µM (inactive)	92.3 µM (inactive)	83 µM (inactive)	> 100 µM			> 100 µM (inactive)	> 100 µM (inactive)	34.8 µM (inactive)	> 100 µM (inactive)	> 100 µM (inactive)	> 100 µM (inactive)	
C=C(Br)CN(CC(=C)Br)C(C)=O	> 100 µM (inactive)	> 100 µM (inactive)	78.9 µM (inactive)	> 100 µM (inactive)	> 100 µM (inactive)	> 100 µM (inactive)	> 100 µM (inactive)	> 100 µM (inactive)	> 100 µM (inactive)	> 100 µM	> 100 µM (inactive)	> 100 µM (inactive)	> 100 µM (inactive)	> 100 µM (inactive)	> 100 µM (inactive)	> 100 µM (inactive)		81.8 µM (inactive)	> 100 µM (inactive)
CCN1CCCc2cc3c(C(F)(F)F)cc(=O)oc3cc21	64.6 µM (inactive)	48.8 µM (inactive)	> 100 µM (inactive)	> 100 µM (inactive)	87.9 µM (inactive)	91.8 µM (inactive)	63.8 µM (inactive)	42.4 µM (inactive)	39.4 µM (inactive)	> 100 µM	91.6 µM (inactive)	> 100 µM (inactive)	57.4 µM (inactive)	> 100 µM (inactive)	53.2 µM (inactive)		58.2 µM (inactive)	20.7 µM (inactive)	
NNC(=S)N/N=C(\C(=O)Nc1cccc(O)c1)C1C(=O)NC(=S)NC1=O	> 100 µM (inactive)	> 100 µM (inactive)	> 100 µM (inactive)	> 100 µM (inactive)	> 100 µM (inactive)	> 100 µM (inactive)	> 100 µM (inactive)	> 100 µM (inactive)	> 100 µM (inactive)	> 100 µM	> 100 µM (inactive)	> 100 µM (inactive)			> 100 µM (inactive)	> 100 µM (inactive)	> 100 µM (inactive)	> 100 µM (inactive)	> 100 µM (inactive)
CN1N=C(c2ccncc2)OC1c1ccc(Cl)cc1Cl (centres undefined)	29.2 µM (inactive)	59.2 µM (inactive)	> 100 µM (inactive)	> 100 µM (inactive)	74.6 µM (inactive)	93.1 µM (inactive)	50.5 µM (inactive)	42 µM (inactive)	97.7 µM (inactive)	> 100 µM	> 100 µM (inactive)	> 100 µM (inactive)	> 100 µM (inactive)	> 100 µM (inactive)	87.9 µM (inactive)	71.8 µM (inactive)		63.1 µM (inactive)	> 100 µM (inactive)
CC1=NN(C(=O)CC(=O)Nc2cccc(C)c2)C(=O)C1/N=N/c1ccc(S(=O)(=O)CCOS(=O)(=O)O)cc1 (centres undefined)	0.718 µM (active)	0.767 µM (active)	4 µM (inactive)	5.57 µM (inactive)	4.72 µM (inactive)	0.373 µM (active)	0.388 µM (active)	0.406 µM (active)	0.463 µM (active)	0.319 µM	0.486 µM (active)	5.47 µM (inactive)	0.76 µM (active)	0.309 µM (active)	0.275 µM (active)	0.344 µM (active)		0.359 µM (active)	4.18 µM (inactive)
CCCC(=O)Oc1c2ccsc2c(OC(=O)CCC)c2ccsc12	4 µM (inactive)	5.35 µM (inactive)	2.6 µM (inactive)	3.13 µM (inactive)	2.23 µM (inactive)	1.35 µM (inactive)	1.24 µM (inactive)	1.96 µM (inactive)	4.55 µM (inactive)	1.21 µM	0.407 µM (active)	0.536 µM (active)	0.74 µM (active)	0.371 µM (active)	1.49 µM (inactive)	1.04 µM (active)	1.35 µM (inactive)	0.836 µM (active)	
C=C1c2nc3ccccc3n2C=C(c2ccc(Cl)cc2)N1c1ccc(OC)cc1	5.46 µM (inactive)		3.44 µM (inactive)		3.56 µM (inactive)	6.97 µM (inactive)	25.6 µM (inactive)	73.1 µM (inactive)	4.39 µM (inactive)	10.1 µM	4.43 µM (inactive)		9.95 µM (inactive)	13.2 µM (inactive)	12.7 µM (inactive)	3.48 µM (inactive)	2.67 µM (inactive)	15.4 µM (inactive)	
CC(=O)OC12C=CC(=O)N1c1ccccc1C(=O)O2 (centres undefined)	> 100 µM (inactive)	> 100 µM (inactive)	> 100 µM (inactive)	> 100 µM (inactive)	> 100 µM (inactive)	> 100 µM (inactive)	> 100 µM (inactive)	> 100 µM (inactive)	> 100 µM (inactive)	> 100 µM	> 100 µM (inactive)	> 100 µM (inactive)	> 100 µM (inactive)						
CS/C=C\C(=O)O[C@H]1C[C@@H]2[C@@H](O)c3occ(C)c3C[C@]2(C)[C@@H](C)C1	13.4 µM (inactive)	22.6 µM (inactive)	35.6 µM (inactive)	28 µM (inactive)	24.9 µM (inactive)	17.5 µM (inactive)	15.4 µM (inactive)	20.7 µM (inactive)	16.6 µM (inactive)	30.1 µM	22.6 µM (inactive)	23.2 µM (inactive)	30.3 µM (inactive)	20.3 µM (inactive)	22.4 µM (inactive)	18.5 µM (inactive)		41.2 µM (inactive)	29.6 µM (inactive)
CCC1(CN(C)C)CC/C(=C\c2ccc3c(c2)OCO3)C1=O (centres undefined)	> 100 µM (inactive)	65.2 µM (inactive)	> 100 µM (inactive)	> 100 µM (inactive)	> 100 µM (inactive)	> 100 µM (inactive)	65.9 µM (inactive)	> 100 µM (inactive)	> 100 µM (inactive)	> 100 µM	91.6 µM (inactive)	> 100 µM (inactive)	> 100 µM (inactive)						
CN(C)Cc1cc(C(=O)/C=C/c2ccc(F)cc2)cc(CN(C)C)c1O	38.6 µM (inactive)	23 µM (inactive)	25.4 µM (inactive)	22.8 µM (inactive)	14.6 µM (inactive)	13.4 µM (inactive)	17.8 µM (inactive)	19.5 µM (inactive)	37.7 µM (inactive)	7.78 µM	21.4 µM (inactive)	21.6 µM (inactive)	34.4 µM (inactive)	> 10 µM (inactive)	31 µM (inactive)	24.7 µM (inactive)		27.5 µM (inactive)	24.7 µM (inactive)
